Assay results: ChEMBL document CHEMBL1201862, “PubChem BioAssay data set” (2004)
Calls of active or inactive are those of the source.

Assays:
[1] = target: Cytochrome P450 3A4 (Homo sapiens, UniProt P08684);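 note: CYP3A4 tested as one member of a cytochrome P450 panel screen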
[2] = target: Cytochrome P450 2C19 (Homo sapiens, UniProt P33261); test: Cytochrome panel assay with activity outcomes. Panel member name: p450-cyp2c19 Compounds with AC50 equal or less than 10 uM are considered active; assay type: functional; conditions: read-out: AC50
Cytochrome P450 2C19, sequence (P33261 whole entry): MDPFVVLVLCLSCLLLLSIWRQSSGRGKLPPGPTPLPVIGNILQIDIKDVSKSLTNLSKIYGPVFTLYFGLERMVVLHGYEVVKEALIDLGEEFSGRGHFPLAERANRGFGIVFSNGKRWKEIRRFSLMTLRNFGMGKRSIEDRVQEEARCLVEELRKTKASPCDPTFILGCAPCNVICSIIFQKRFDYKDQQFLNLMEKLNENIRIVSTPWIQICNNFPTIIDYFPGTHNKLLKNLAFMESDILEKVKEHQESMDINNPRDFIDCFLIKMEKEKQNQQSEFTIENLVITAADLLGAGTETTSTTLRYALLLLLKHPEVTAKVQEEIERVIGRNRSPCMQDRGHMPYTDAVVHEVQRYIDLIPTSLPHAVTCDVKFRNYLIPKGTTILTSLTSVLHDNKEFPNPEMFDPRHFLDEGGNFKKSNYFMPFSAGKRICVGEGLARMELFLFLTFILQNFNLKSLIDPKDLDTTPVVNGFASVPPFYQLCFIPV

[3] = target: T1, Cytochrome P450 1A2 (Homo sapiens, UniProt P05177);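 note: PubChem cytochrome P450 panel assay, CYP1A2 panel member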
T1 sequence (P05177 whole entry): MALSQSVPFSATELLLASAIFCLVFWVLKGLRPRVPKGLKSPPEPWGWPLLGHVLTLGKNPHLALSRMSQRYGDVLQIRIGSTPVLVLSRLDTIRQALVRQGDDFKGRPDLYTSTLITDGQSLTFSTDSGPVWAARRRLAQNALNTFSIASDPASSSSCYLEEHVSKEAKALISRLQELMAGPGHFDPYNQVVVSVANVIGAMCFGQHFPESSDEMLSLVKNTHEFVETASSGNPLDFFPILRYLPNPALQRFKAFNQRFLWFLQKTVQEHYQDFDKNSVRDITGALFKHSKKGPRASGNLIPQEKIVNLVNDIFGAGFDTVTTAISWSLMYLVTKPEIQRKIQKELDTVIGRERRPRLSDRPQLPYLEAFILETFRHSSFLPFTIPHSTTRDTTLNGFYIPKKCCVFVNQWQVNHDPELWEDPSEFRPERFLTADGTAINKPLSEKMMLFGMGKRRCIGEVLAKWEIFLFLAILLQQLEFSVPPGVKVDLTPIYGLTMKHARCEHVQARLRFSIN

[4] = target: T2, Leucine aminopeptidase (Plasmodium falciparum 3D7, UniProt Q8IL11); test: P. falciparum M17LAP inhibitors, primary screen, biochemical, fluorogenic H-Leu-NHMec substrate, 1536-well (AID 1619); assay type: functional
T2 sequence (Q8IL11 whole entry): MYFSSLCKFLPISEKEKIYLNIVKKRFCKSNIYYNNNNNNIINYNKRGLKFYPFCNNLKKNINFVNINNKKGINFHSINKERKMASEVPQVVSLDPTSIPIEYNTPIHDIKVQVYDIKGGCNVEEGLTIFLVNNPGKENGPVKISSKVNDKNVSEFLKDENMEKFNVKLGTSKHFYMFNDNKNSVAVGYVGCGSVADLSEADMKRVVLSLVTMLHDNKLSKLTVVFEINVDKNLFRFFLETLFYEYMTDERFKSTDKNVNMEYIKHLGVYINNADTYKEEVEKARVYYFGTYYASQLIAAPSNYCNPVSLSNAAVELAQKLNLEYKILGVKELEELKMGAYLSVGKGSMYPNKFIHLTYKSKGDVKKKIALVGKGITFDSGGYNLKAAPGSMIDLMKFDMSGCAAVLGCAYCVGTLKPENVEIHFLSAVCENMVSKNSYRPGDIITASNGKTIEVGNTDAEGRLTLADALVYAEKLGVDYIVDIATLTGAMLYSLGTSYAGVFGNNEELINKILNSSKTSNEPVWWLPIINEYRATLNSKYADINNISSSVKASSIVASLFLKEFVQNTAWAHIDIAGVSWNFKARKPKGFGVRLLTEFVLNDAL

[5] = target: T3, Mannose-6-phosphate isomerase (Homo sapiens, UniProt P34949); test: MPI enzyme activity inhibition – biochemical, fluorescence intensity, coupled assay, primary screen (AID 1209)
T3 sequence (P34949 whole entry): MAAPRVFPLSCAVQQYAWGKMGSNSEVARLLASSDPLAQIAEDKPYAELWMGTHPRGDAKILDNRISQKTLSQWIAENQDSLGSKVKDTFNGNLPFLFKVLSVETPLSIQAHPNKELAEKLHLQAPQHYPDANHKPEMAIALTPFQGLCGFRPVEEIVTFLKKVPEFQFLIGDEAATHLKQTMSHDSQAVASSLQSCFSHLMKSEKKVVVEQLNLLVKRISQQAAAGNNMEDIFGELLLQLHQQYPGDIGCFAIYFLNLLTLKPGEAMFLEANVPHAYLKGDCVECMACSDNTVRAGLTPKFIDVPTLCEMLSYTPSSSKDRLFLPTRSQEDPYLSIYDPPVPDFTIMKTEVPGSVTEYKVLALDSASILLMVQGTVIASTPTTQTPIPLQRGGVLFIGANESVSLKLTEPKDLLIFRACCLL

[6] = tested on: HeLa; test: Cytotoxicity counterscreen assay for transcriptional activators of heat shock protein 70 (Hsp70). [Related pubchem assays: 1203, 1252 ]; assay type: functional; conditions: Homo sapiens;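 note: cells exposed to compound for 16 hours before readout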
[7] = target: Peroxisome proliferator-activated receptor gamma/Nuclear receptor coactivator 2 (Homo sapiens, UniProt P37231); assay type: functional;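 note: agonist potency for raising coactivator recruitment to the receptor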
Peroxisome proliferator-activated receptor gamma/Nuclear receptor coactivator 2, sequence (P37231 whole entry): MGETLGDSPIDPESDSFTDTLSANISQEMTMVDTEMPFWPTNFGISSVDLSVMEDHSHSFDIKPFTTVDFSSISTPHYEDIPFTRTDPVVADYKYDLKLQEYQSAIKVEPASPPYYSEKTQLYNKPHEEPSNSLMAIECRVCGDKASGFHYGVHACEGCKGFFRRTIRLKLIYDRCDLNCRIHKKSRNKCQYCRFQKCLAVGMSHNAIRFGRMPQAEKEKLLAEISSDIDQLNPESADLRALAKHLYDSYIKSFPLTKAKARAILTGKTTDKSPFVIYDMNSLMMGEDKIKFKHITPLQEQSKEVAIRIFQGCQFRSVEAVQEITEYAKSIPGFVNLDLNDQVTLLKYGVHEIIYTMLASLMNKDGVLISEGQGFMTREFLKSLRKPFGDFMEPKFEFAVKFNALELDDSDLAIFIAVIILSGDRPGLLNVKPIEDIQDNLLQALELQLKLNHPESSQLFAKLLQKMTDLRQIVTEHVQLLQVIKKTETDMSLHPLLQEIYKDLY
Peroxisome proliferator-activated receptor gamma/Nuclear receptor coactivator 2, sequence (Q15596 whole entry, further chain): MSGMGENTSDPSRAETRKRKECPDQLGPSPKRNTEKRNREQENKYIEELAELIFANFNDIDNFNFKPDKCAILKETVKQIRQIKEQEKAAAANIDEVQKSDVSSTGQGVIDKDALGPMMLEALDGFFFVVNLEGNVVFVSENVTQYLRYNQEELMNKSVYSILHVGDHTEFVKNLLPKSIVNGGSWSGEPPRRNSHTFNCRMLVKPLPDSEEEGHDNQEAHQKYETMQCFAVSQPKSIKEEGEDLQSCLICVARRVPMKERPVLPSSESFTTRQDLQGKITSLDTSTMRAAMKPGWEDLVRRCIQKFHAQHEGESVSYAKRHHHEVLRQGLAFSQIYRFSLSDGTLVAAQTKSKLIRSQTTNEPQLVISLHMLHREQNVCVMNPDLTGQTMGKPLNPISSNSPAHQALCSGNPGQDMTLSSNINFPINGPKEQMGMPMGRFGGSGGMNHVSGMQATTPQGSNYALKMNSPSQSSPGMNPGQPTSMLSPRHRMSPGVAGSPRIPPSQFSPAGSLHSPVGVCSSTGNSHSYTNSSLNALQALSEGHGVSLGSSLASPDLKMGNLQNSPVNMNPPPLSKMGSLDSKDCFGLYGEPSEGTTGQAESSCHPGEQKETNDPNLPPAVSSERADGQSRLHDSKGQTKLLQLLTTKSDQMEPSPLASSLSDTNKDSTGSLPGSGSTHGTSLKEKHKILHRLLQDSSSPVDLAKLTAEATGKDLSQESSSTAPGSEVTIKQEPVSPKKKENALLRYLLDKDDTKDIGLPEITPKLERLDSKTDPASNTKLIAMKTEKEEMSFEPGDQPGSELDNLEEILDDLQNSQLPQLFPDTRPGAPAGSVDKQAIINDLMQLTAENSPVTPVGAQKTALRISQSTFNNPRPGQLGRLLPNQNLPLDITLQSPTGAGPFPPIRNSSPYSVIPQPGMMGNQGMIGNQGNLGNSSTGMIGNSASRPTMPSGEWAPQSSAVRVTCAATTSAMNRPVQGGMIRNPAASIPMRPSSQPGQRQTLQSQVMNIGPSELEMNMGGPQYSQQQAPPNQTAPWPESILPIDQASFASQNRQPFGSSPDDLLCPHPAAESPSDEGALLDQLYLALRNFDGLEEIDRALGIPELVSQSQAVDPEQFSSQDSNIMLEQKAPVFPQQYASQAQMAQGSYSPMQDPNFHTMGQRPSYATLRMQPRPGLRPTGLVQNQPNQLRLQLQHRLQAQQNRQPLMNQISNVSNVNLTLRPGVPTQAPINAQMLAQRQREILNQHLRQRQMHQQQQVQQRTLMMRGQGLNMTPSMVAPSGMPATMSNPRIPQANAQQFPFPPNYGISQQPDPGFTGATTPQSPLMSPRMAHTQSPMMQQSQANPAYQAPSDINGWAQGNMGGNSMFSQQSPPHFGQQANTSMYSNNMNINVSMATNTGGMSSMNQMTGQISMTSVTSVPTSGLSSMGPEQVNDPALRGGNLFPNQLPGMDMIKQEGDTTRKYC

[8] = target: Peroxisome proliferator-activated receptor gamma/Nuclear receptor coactivator 1 (Homo sapiens, UniProt P37231); assay type: functional;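 note: agonist potency as compounds enhance coactivator SRC-1 recruitment to PPARgamma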
[9] = target: Peroxisome proliferator-activated receptor gamma/Nuclear receptor coactivator 3 (Homo sapiens, UniProt P37231); assay type: functional;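 note: agonist potency for raising coactivator recruitment to the receptor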
[10] = cells
[11] = target: Disintegrin and metalloproteinase domain-containing protein 17 (Homo sapiens, UniProt P78536); test: inhibition of ADAM17 substrate cleavage – biochemical, quenched FRET substrate, counter-screen for ADAM10 exosite inhibitor project, dose response (AID 743253)
Disintegrin and metalloproteinase domain-containing protein 17, sequence (P78536 whole entry, the tested form may be a part): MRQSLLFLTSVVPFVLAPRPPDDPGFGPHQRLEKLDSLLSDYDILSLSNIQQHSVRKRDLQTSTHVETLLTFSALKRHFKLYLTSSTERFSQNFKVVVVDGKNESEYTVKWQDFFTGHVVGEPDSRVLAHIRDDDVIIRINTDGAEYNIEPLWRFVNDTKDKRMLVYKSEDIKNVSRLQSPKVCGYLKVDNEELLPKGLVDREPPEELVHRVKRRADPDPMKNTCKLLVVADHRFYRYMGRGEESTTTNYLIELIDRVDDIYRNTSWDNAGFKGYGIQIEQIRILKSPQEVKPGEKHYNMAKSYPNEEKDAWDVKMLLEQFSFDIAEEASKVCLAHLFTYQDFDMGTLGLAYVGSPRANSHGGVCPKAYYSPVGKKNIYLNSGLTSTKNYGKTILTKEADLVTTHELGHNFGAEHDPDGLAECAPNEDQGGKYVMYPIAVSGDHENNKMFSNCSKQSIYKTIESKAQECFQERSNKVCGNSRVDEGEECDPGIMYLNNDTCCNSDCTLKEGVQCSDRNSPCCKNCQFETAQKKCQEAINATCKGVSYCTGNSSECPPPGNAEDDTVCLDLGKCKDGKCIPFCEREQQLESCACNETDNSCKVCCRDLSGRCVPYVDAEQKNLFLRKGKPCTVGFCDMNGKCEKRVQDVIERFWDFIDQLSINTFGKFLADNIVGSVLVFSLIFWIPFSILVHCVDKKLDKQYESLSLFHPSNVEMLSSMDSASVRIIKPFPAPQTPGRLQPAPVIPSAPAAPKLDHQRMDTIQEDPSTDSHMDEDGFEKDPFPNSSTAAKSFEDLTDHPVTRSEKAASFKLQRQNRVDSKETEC

[12] = tested on: Streptococcus sp. 'group A'; test: Streptococcus pyogenes SK(-)GAS viability under kanamycin – luminescence, BacTiterGlo, confirmation, counter-screen for streptokinase expression inhibitor project, dose response (AID 1900); assay type: functional, organism-based
[13] = target: T4, Ubiquitin-conjugating enzyme E2 N (Homo sapiens, UniProt P61088); assay type: functional;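 note: Dose-response confirmation in a TR-FRET assay detecting UBC13-driven polyubiquitin chain formation, inhibition measured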
T4 sequence (P61088 whole entry): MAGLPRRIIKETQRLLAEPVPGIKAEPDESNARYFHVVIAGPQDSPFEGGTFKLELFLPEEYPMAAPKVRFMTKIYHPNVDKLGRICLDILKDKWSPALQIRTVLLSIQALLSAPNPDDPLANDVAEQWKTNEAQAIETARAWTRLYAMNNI

[14] = tested on: Streptococcus; test: GAS UMAA2166 growth inhibition – luminescence, BacTiterGlo, counter-screen for streptokinase expression inhibitor project, dose response (AID 1915); assay type: functional, organism-based;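 note: potency for reduction of bacterial viability or growth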
[15] = target: T5, Calpain-2 catalytic subunit (Sus scrofa, UniProt P43367); test: m-calpain protease blockers, concentration series – biochemical, fluorogenic peptide substrate, dose response (AID 1420); assay type: functional
T5 sequence (P43367 whole entry): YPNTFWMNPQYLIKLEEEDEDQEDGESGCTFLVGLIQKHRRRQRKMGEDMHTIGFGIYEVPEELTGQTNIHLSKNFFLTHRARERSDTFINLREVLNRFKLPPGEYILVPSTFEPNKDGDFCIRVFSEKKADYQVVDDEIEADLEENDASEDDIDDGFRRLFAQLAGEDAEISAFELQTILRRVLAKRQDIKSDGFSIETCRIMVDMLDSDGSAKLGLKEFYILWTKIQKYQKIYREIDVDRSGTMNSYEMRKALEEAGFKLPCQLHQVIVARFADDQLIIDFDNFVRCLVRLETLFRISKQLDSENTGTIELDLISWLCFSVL

[16] = target: T6, Streptokinase A (Streptococcus pyogenes serotype M1, UniProt P10520); test: viability-normalized secreted streptokinase activity reduction – plasminogen activation absorbance, OD405, dose response (AID 1914); assay type: functional, Streptococcus pyogenes M1 GAS;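 note: secreted streptokinase activity via plasminogen activation per viability signal from cell pellet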
T6 sequence (P10520 whole entry): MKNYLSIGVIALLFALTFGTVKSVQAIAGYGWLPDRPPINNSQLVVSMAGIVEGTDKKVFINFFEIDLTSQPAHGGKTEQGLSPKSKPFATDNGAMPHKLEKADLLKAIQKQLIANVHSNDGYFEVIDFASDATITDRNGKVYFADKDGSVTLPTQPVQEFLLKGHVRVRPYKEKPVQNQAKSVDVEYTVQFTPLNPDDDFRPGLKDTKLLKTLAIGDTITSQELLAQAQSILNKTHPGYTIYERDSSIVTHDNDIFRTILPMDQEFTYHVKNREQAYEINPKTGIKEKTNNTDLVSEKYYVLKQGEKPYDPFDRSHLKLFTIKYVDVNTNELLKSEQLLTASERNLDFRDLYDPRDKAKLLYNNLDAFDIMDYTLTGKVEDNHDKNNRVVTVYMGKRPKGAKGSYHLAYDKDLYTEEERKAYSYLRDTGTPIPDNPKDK

[17] = target: Heat shock protein HSP 90-alpha (Homo sapiens, UniProt P07900); assay type: functional, organism-based
[18] = viability loss of HPDE-C7K cells – cell-based, fluorescence, HTS, primary screen (AID 431); assay type: functional; conditions: Homo sapiens
[19] = HPDE-C7 pancreatic duct cell viability loss – fluorescence, HTS (AID 430); assay type: functional, cell-based; conditions: Homo sapiens
[20] = target: Epstein-Barr nuclear antigen 1 (Epstein-Barr virus (strain B95-8) (HHV-4) (Human herpesvirus 4), UniProt P03211); test: inhibition of EBV nuclear antigen 1 DNA binding – biochemical, fluorescence polarization, 1536-well, dose response (AID 2381); set-up: species or system human gammaherpesvirus 4;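 note: fluorescence polarization of a Cy5 DNA probe bound by EBNA-1 protein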
Epstein-Barr nuclear antigen 1, sequence (P03211 whole entry): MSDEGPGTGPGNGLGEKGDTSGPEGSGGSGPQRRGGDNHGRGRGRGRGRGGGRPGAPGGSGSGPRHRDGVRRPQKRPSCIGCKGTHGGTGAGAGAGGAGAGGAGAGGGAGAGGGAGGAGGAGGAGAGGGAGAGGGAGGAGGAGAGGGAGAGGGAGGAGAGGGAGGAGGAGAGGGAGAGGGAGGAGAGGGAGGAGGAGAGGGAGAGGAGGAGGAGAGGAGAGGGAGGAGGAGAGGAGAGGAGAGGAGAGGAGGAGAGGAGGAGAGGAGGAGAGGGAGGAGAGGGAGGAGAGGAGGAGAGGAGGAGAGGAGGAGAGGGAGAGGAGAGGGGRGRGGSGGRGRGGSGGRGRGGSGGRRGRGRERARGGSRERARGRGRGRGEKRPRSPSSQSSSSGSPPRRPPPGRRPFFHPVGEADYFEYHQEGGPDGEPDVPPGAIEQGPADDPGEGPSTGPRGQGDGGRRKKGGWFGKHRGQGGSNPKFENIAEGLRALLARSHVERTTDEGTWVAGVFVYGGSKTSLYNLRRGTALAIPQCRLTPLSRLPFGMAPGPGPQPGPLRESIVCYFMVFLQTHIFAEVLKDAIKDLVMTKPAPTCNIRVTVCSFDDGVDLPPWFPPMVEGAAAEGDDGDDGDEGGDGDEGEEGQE

[21] = target: Lytic switch protein BZLF1 (Epstein-Barr virus (strain B95-8) (HHV-4) (Human herpesvirus 4), UniProt P03206); test: inhibition of BZLF1 ZTA DNA binding – biochemical, fluorescence polarization, Epstein-Barr virus, 1536-well, counter-screen for EBNA-1 inhibitor project, dose response (AID 2377); set-up: species or system human gammaherpesvirus 4;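 note: fluorescence polarization of Cy5-labelled ZRE DNA probe bound by purified Zta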
Lytic switch protein BZLF1, sequence (P03206 whole entry): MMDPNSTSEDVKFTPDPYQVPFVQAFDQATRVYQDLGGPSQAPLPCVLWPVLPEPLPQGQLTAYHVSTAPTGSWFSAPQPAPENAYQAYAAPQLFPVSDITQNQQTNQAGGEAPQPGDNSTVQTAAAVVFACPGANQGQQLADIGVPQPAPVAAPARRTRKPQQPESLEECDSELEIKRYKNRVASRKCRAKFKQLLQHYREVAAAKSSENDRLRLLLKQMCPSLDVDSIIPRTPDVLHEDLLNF

Cytochrome P450 3A4, sequence (P08684 whole entry): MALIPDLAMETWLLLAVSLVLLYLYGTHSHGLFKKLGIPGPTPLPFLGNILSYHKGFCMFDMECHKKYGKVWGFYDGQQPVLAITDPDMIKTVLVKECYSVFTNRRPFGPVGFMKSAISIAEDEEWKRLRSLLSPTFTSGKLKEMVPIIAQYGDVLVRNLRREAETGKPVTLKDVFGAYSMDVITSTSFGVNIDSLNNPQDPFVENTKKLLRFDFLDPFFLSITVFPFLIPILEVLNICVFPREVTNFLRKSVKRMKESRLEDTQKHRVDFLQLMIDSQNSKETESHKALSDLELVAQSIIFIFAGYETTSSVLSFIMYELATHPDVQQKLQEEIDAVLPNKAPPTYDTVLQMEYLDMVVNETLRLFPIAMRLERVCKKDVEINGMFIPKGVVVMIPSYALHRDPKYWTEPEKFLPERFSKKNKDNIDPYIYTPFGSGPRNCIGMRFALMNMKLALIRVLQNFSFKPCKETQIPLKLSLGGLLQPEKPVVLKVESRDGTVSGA

CCCCC(=O)NNC(=S)NC(=O)c1cccc([N+](=O)[O-])c1
AC50 [1]: inconclusive | AC50 [2]: 15.8 µM (inconclusive) | AC50 [3]: 22.4 µM (inconclusive) | IC50 [4]: 49.1 µM (active) | IC50 [5]: > 50 µM (not active)

CC1C/C(=C/c2ccccn2)C(=O)/C(=C/c2ccccn2)C1 (stereo unspecified)
CC50 [6]: > 1.22 µM (not active)

CCOCCn1/c(=N/C(=O)c2cc(Cl)sc2Cl)sc2cc(S(N)(=O)=O)ccc21
EC50 [7]: 14 µM (not active) | EC50 [8]: 13.4 µM (not active) | EC50 [9]: 16.8 µM (not active)

COc1ccccc1CNC(=O)C1CCN(S(=O)(=O)c2cccc3nonc23)CC1
IC50 [10]: 3.4 µM (active)

C=C(C)COc1ccc(-c2n[nH]cc2Oc2cccc(OC)c2)c(O)c1
IC50 [11]: > 69.5 µM (inactive) | EC50 [12]: 8.18 µM (active) | IC50 [13]: > 20 µM (inactive) | EC50 [14]: 10 µM (active) | IC50 [15]: 7.92 µM (not active) | EC50 [16]: > 150 µM (not active) | AC50 [17]: 7.54 µM (active) | EC50 [18]: 7.54 µM (active) | EC50 [19]: 8.77 µM (active)

NS(=O)(=O)c1ccc(NC(=S)NC(=O)c2ccc3c(c2)OCO3)cc1
IC50 [20]: 19.5 µM (not active) | IC50 [21]: 33.3 µM (not active)
